# Where “and” joins values, the source holds several entries; their conditions need not be identical. Equal entries are not always repeated. Entries after “also recorded” stand apart in the source; their conditions may differ.
# Key:
# HeLa cells [1] = test: Cell penetrating activity of FITC-labelled mutant peptides, mean fluorescence intensity by FACS; type: cell-based; conditions: for mean fluorescence intensity (MFI) relative to WT, MFI of WT at 10 μM set to 1: peptide at 10 μM; for mean fluorescence intensity (MFI) relative to WT, MFI of WT at 10 μM set to 1 / translocation efficiency compared with another peptide variant (comparator named in the value) / mean fluorescence intensity (MFI) relative to WT: 2 hours, FACS; for penetrating activity compared with TAT: 100 μM; for mean fluorescence intensity (MFI) relative to WT: peptide at 100 μM
# Procedure: N-terminus of each peptide was labeled with fluorescence dye, FITC and C-terminus was protected. Peptide purity (>95%) was determined by HPLC. Synthesis of the peptides of the present invention was requested to PEPTRON, Inc.
# HeLa cell line was propagated in DMEM supplemented with 10% FBS and 100 units/mL penicillin-streptomycin. Cells were grown in a 5% CO2 incubator at 37° C.
# HeLa cells were cultured in 6-well plate until they were 70˜80% grown up before a day of the experiment. The cells were washed with DMEM of 37° C. twice, and TCTP-derived peptides synthesized in Example 5-1) were treated to the culture medium in a dose dependent manner (0, 1, 10, 100 μM), then the cells was incubated for 2 hours in an CO2 incubator at 37° C.,
# After the incubation, the cells were washed in cool PBS two times and treated with 1 mg/ml trypsin for 15 min at 37° C. to digest peptides attached on cell membrane and washed in PBS twice again. Then, the cells were analyzed by FACS at emission 510 nm and excitation 530 nm for a measurement of FITC of intracellular uptake marker (FIGS. 7, 8 and 9). Intracellular translocation efficiency of mutant peptides, TCTP-CPP#1-35(SEQ ID Nos.: 20-54) was compared to wild type(WT), TCTP(1-10)(SEQ ID No.: 1) and control peptide, TAT(48-57).
# HeLa cells [2] = test: Cell penetrating efficiency of rhodamine-labelled TCTP-derived peptides, microplate fluorescence reader; type: cell-based; conditions: for intracellular translocation, dependence on concentration: 0-100 μM, 15 minutes or 2 hours; for efficiency versus control peptide TAT at low concentration: 1 μM and 10 μM; for cell penetrating activity / translocation efficiency in comparison with TAT (words): HeLa, rhodamine-labelled peptides, overall
# Procedure: N-terminus of each peptides was labeled with fluorescence dye, rhodamine and C-terminus was protected. Peptide purity (>95%) was determined by HPLC. Synthesis of the peptides was requested to PEPTRON, Inc.
# HeLa cell line (ATCC) was propagated in DMEM (GIBCO) supplemented with 10% FBS (GIBCO) and 100 units/mL penicillin-streptomycin. Cells were grown in a 5% CO2 incubator at 37° C.
# HeLa cells were cultured in 48-well plate until they were 70˜80% grown up before a day of the experiment. The cells were washed with DMEM of 37° C. twice, and TCTP-derived peptides synthesized in Example 2-1) were treated to the culture medium in a dose dependent manner (0, 1, 5, 10, 50, 100 μM), then the cells was incubated for 15 minutes or 2 hours in an CO2 incubator at 37° C.
# After the incubation, the cells were washed in cool PBS three times and immediately measured by a microplate fluorescence reader (BIO-TEK instruments, Inc., Vermont, USA) at emission 530 nm and excitation 590 nm for a measurement of rhodamine of intracellular uptake marker. The sensitivity of reader was set at 100 as a basic mode, but was lowered to 75 if the fluorescent signals were too strong. All experiments were conducted in triplet repeats for reproducibility (FIG. 2 and FIG. 3).
sequence,measurement,setting,value
MIIFRILISHKK (mutant peptide based on human sequence; (1)..(12) TCTP-CPP#28) [SEQ ID No.: 47],"mean fluorescence intensity (MFI) relative to WT, MFI of WT at 10 μM set to 1",HeLa cells [1],7.04 times
MIIFRIAASHKK (mutant peptide based on human sequence; (1)..(12) TCTP-CPP#12) [SEQ ID No.: 31],translocation efficiency compared with another peptide variant (comparator named in the value),HeLa cells [1],similarly increased at 100 μM
same,"mean fluorescence intensity (MFI) relative to WT, MFI of WT at 10 μM set to 1",HeLa cells [1],29 times and 26.77 times
MIIFAIAASHKK (mutant peptide based on human sequence; (1)..(12) TCTP-CPP#26) [SEQ ID No.: 45],"mean fluorescence intensity (MFI) relative to WT, MFI of WT at 10 μM set to 1",HeLa cells [1],11.47 times
LIIFRIAASHKK (mutant peptide based on human sequence; (1)..(12) TCTP-CPP#16) [SEQ ID No.: 35],translocation efficiency compared with another peptide variant (comparator named in the value),HeLa cells [1],"increased result of translocation efficiency at the concentration of 10 μM and a decreased result at 100 μM, compared to SEQ ID No.: 31"
same,"mean fluorescence intensity (MFI) relative to WT, MFI of WT at 10 μM set to 1",HeLa cells [1],29.53 times
LIIFRILISHHH (mutant peptide based on human sequence; (1)..(12) TCTP-CPP#30) [SEQ ID No.: 49],cell penetrating activity compared with TAT,HeLa cells [1]; concentration not given,excellent activity compared with TAT
LIIFRILISHKK (mutant peptide based on human sequence; (1)..(12) TCTP-CPP#27) [SEQ ID No.: 46],translocation efficiency compared with another peptide variant (comparator named in the value),HeLa cells [1],substitution for leucine caused the decreased penetrating activity
same,"mean fluorescence intensity (MFI) relative to WT, MFI of WT at 10 μM set to 1",HeLa cells [1],3.75 times
WIIFRALISHKK (mutant peptide based on human sequence; (1)..(12) TCTP-CPP#19) [SEQ ID No.: 38],translocation efficiency compared with another peptide variant (comparator named in the value),HeLa cells [1],lower than SEQ ID No.: 34 at the concentration of 100 μM; also recorded: substitution for tryptophan did not increase translocation efficiency
same,"mean fluorescence intensity (MFI) relative to WT, MFI of WT at 10 μM set to 1",HeLa cells [1],55.6 times
WIIFRIAASHKK (mutant peptide based on human sequence; (1)..(12) TCTP-CPP#17) [SEQ ID No.: 36],translocation efficiency compared with another peptide variant (comparator named in the value),HeLa cells [1],stronger than SEQ ID No.: 40(WT-IX:Y) and SEQ ID No.: 42(WT-IX:T) only at 10 μM
same,"mean fluorescence intensity (MFI) relative to WT, MFI of WT at 10 μM set to 1",HeLa cells [1],18.4 times
FIIFRIAASHKK (mutant peptide based on human sequence; (1)..(12) TCTP-CPP#15) [SEQ ID No.: 34],translocation efficiency compared with another peptide variant (comparator named in the value),HeLa cells [1],"increased result of translocation efficiency at the concentration of 10 μM and a decreased result at 100 μM, compared to SEQ ID No.: 31"
MIIFRDLISH (mutant peptide based on human sequence; (1)..(10) TCTP-CPP#3) [SEQ ID No.: 22],penetrating activity compared with TAT,HeLa cells [1],better penetrating activity than TAT(100 μM)
same,"mean fluorescence intensity (MFI) relative to WT, MFI of WT at 10 μM set to 1",HeLa cells [1],19.63 times
same,mean fluorescence intensity (MFI) relative to WT,HeLa cells [1],216.75 times
MIIYRAEISH (mutant peptide based on human sequence; (1)..(10) TCTP-CPP#10) [SEQ ID No.: 29],cell penetrating activity compared with WT SEQ ID No.: 1,HeLa cells [1]; concentration not given,decreased to same degree with alanine substituent
MIIFKIAASHKK (mutant peptide based on human sequence; (1)..(12) TCTP-CPP#24) [SEQ ID No.: 43],"mean fluorescence intensity (MFI) relative to WT, MFI of WT at 10 μM set to 1",HeLa cells [1],12.1 times
"MIIYRDLISH ((1)..(10) 1-10 amino acid residue of TCTP; listed as Homo sapiens) [SEQ ID No.: 1, Residues of TCTP(1-10)]","intracellular translocation, dependence on concentration",HeLa cells [2],translocated not in 1-10 μM but in 50-100 μM
same,efficiency versus control peptide TAT at low concentration,HeLa cells [2],"lower efficiency than control peptide, TAT"
same,"cell penetrating activity, SEQ ID No.: 1 versus SEQ ID No.: 2",HeLa cells [2]; 50 μM (FIGS. 2 & 3),more effective than SEQ ID No.: 2
same,concentration at which translocation was saturated,HeLa cells [2]; 2 hour treatment (FIG. 3),50 µM
same,cell penetrating activity / translocation efficiency in comparison with TAT (words),HeLa cells [2],excellent cell penetrating activity in comparison with conventional TAT
same,cell penetrating activity / translocation efficiency in comparison with TAT (words),HeLa cells [2]; listed as TCTP (1-10),"superior ability than well-known PTD, TAT in their translocation efficiency"
same,cell penetrating activity compared to that of TAT,HeLa cells [2]; treated for 15 minutes in 50 μM,over 3 times
same,cell penetrating activity compared to that of TAT,HeLa cells [2]; treated for 15 minutes in 100 μM,6 times
same,cell penetrating activity compared to that of TAT,"HeLa cells [2]; treatment for 2 hours, 50 μM",about 29 times
same,cell penetrating activity compared to that of TAT,"HeLa cells [2]; treatment for 2 hours, 100 μM",~30 times
CIISRDLISH (mutant peptide based on human sequence; (1)..(10) TCTP-CPP#6) [SEQ ID No.: 25],"mean fluorescence intensity (MFI) relative to WT, MFI of WT at 10 μM set to 1",HeLa cells [1],0.91 times
same,mean fluorescence intensity (MFI) relative to WT,HeLa cells [1],1.81 times
WIIFRAAASHKK (mutant peptide based on human sequence; (1)..(12) TCTP-CPP#18) [SEQ ID No.: 37],translocation efficiency compared with another peptide variant (comparator named in the value),HeLa cells [1],lower than SEQ ID No.: 34 at the concentration of 100 μM; also recorded: substitution for tryptophan did not increase translocation efficiency
same,"mean fluorescence intensity (MFI) relative to WT, MFI of WT at 10 μM set to 1",HeLa cells [1],52.0 times
MIIYRALISHKK (mutant peptide based on human sequence; (1)..(12) TCTP-CPP#7) [SEQ ID No.: 26],penetrating activity compared with TAT,HeLa cells [1],better penetrating activity than TAT(100 μM)
same,cell penetrating activity compared with WT SEQ ID No.: 1,HeLa cells [1]; concentration not given,increased cell penetrating activity
same,"mean fluorescence intensity (MFI) relative to WT, MFI of WT at 10 μM set to 1",HeLa cells [1],6.04 times
same,mean fluorescence intensity (MFI) relative to WT,HeLa cells [1],144.6 times
MIIYRDKKSH (mutant peptide based on human sequence; (1)..(10) TCTP-CPP#2) [SEQ ID No.: 21],cell penetrating activity compared with WT SEQ ID No.: 1,HeLa cells [1]; concentration not given,decreased twice
"IIYRDLISH ((1)..(9) 2-10 amino acid residue of TCTP; listed as Homo sapiens) [SEQ ID No.: 4, Residues of TCTP(2-10)]","intracellular translocation, dependence on concentration",HeLa cells [2],not translocated at a concentration of 1 μM to 10 μM
same,efficiency versus control peptide TAT at low concentration,HeLa cells [2],"lower efficiency than control peptide, TAT"
same,translocation,"HeLa cells [2]; 100 μM, 15 minutes treatment",more efficiently translocated at 100 μM after 15 minutes treatment
same,cell penetrating activity / translocation efficiency in comparison with TAT (words),HeLa cells [2],excellent cell penetrating activity in comparison with conventional TAT
same,cell penetrating activity / translocation efficiency in comparison with TAT (words),HeLa cells [2]; listed as TCTP (2-10),"superior ability than well-known PTD, TAT in their translocation efficiency"
same,cell penetrating activity / translocation efficiency in comparison with TAT (words),HeLa cells [2]; listed as TCTP(2-10),more excellent penetrating activity than well-known TAT(47-58) peptide
same,translocation versus control peptide TAT(48-57),"HeLa cells [2]; after 2 hours, 100 μM",more efficiently translocated at 100 μM than control peptide
MIIFRAAASHKK (mutant peptide based on human sequence; (1)..(12) TCTP-CPP#14) [SEQ ID No.: 33],translocation efficiency compared with another peptide variant (comparator named in the value),HeLa cells [1],similarly increased at 100 μM
same,"mean fluorescence intensity (MFI) relative to WT, MFI of WT at 10 μM set to 1",HeLa cells [1],3.2 times
WIIFKIAASHKK (mutant peptide based on human sequence; (1)..(12) TCTP-CPP#25) [SEQ ID No.: 44],"mean fluorescence intensity (MFI) relative to WT, MFI of WT at 10 μM set to 1",HeLa cells [1],15.04 times
MIIFRIAAYHKK (mutant peptide based on human sequence; (1)..(12) TCTP-CPP#20) [SEQ ID No.: 39],translocation efficiency compared with another peptide variant (comparator named in the value),HeLa cells [1],lower than SEQ ID No.: 34 at the concentration of 100 μM
same,"mean fluorescence intensity (MFI) relative to WT, MFI of WT at 10 μM set to 1",HeLa cells [1],25.0 times
MIIYRIAASHKK (mutant peptide based on human sequence; (1)..(12) TCTP-CPP#8) [SEQ ID No.: 27],penetrating activity compared with TAT,HeLa cells [1],better penetrating activity than TAT(100 μM)
same,cell penetrating activity compared with WT SEQ ID No.: 1,HeLa cells [1]; concentration not given,increased cell penetrating activity
same,"mean fluorescence intensity (MFI) relative to WT, MFI of WT at 10 μM set to 1",HeLa cells [1],1.73 times
same,mean fluorescence intensity (MFI) relative to WT,HeLa cells [1],342.9 times
LIIFAIAASHKK (mutant peptide based on human sequence; (1)..(12) TCTP-CPP#34) [SEQ ID No.: 53],"mean fluorescence intensity (MFI) relative to WT, MFI of WT at 10 μM set to 1",HeLa cells [1],8.24 times

# Reference: patent US9907857B2, “Peptide having cell membrane penetrating activity” (EWHA UNIVERSITY-INDUSTRY COLLABORATION FOUNDATION, priority 2006, dated 2018)
